Compared with `O=C(Nc1cccc2c(NN3CCOC3=O)ccnc12)c1c(Cl)cccc1Cl`, `CNC(=O)c1ccccc1Nc1nc(Nc2ccc3c(c2)COCC2CCCCN32)ncc1Cl` (stereo not drawn) is lower in melting point: > 250 °C for the first, 220 to 221 °C for the second.

Compared with `Cc1ccc2c(c1)C(O)CC21CCN(CCCC(=O)c2ccc(F)cc2)C1` (stereo not drawn), `Cc1c[nH]c(-c2nc([C@H]3CCCN(C(=O)c4ccc(F)cc4)C3)no2)c1` is higher in melting point: 137 to 139 °C for the first, 183 °C for the second.

First: O=C(Nc1ccccc1)c1ccc(C(=O)Nc2nnc(-c3cc(Cl)cc(Cl)c3O)s2)cc1
Second: O=C(O)c1cccc(NC(=O)c2sc3c([N+](=O)[O-])c(O)c(O)cc3c2Cl)c1
The melting point of the first is higher: 342 °C for the first, 293 to 294 °C for the second.

First: CCN(CC)CCN1c2cc(Cl)ccc2S[C@H]2[C@@H](O)[C@H](O)[C@@H](COC(C)=O)O[C@H]21
Second: CC(C)=CCN1CCc2c(sc(N)c2C(=O)c2ccc(Cl)cc2)C1
The melting point of the first is higher: 180 °C for the first, 118 to 120 °C for the second.

First: N#Cc1cc(=O)n2nc(S(=O)(=O)Cc3ccccc3)sc2n1
Second: CC(C)(C)C(=O)OCn1cnc2c(OCc3ccccc3)nc(N)nc21
The melting point of the first is higher: 214 to 217 °C for the first, 161 to 162 °C for the second.

First: CCCCOc1ccc(NC(=O)c2cnc(C(=O)NCC(=O)OCC)c(Cl)c2)cc1
Second: COCCCNS(=O)(=O)NC(=O)OC/C=C/c1ccc(OCCOC)cc1Oc1ncc(C(F)(F)F)cc1Cl
The melting point of the first is higher: 177 to 179 °C for the first, 98 to 100 °C for the second.

First: O=C(O)[C@H](Cc1ccc(OCCc2coc(-c3ccccc3)n2)cc1)NS(=O)(=O)Cc1ccccc1
Second: CCCc1oc(-c2ccccc2)nc1COc1ccc(C=O)cc1
The melting point of the first is higher: 141 to 143 °C for the first, 76 to 77 °C for the second.

First: N#Cc1cc([N+](=O)[O-])ccc1NC(=O)c1cccc([N+](=O)[O-])c1
Second: CC(C)(c1ccc(Oc2cccc([N+](=O)[O-])c2)cc1)c1ccc(Oc2cccc([N+](=O)[O-])c2)cc1
The melting point of the first is higher: 205 to 206 °C for the first, 111 to 113 °C for the second.

First: O=[N+]([O-])c1cnn2c(-c3cccs3)ccnc12
Second: Cn1cc(C#N)c(Nc2ccc(Cl)cc2[N+](=O)[O-])n1
The melting point of the first is higher: 235 to 237 °C for the first, 205 °C for the second.

First: CC(=O)NNC(=O)c1ccc(Br)c(C)c1
Second: Cc1cc(=O)c(C(=O)Nc2ccccc2)c(C)o1
The melting point of the first is higher: 186 to 187 °C for the first, 148 to 149 °C for the second.

Compared with `O=C(OC1CCCCC1)c1ncn2c1[C@@H]1CCCN1C(=O)c1c(Cl)cccc1-2`, `O=C(OCC1CCC1)c1ncc2n1-c1cccc(Br)c1C(=O)N1CCC[C@@H]21` is higher in melting point: 166 to 167 °C for the first, 170 to 172 °C for the second.

First: CC1(C)CCC(Cc2ccc(Cl)cc2)C1(O)Cn1ccnc1 (stereo not drawn)
Second: Oc1ccc(-c2cc3cc(O)cc(Cn4ccnc4)c3o2)cc1
The melting point of the first is lower: 130 to 132 °C for the first, 269 to 271 °C for the second.

First: CCCCc1nc2ccccn2c(=O)c1-c1ccc(NC2CCN(C(=O)OC(C)(C)C)C2)cc1 (stereo not drawn)
Second: CC(C)(C)CC(=O)Oc1ccc(-c2nn(C3CCCC3)c3c(F)cccc23)cc1
The melting point of the first is higher: 116 to 118 °C for the first, 74 to 75 °C for the second.

First: BrCc1cccc(-c2cccc(CBr)n2)n1
Second: Oc1ccc(-c2cc3ccccc3nc2Cl)cc1
The melting point of the first is higher: 180 to 181 °C for the first, 164 to 166 °C for the second.

Compared with `COc1c(Cl)ccc(-c2cc(N)c(Cl)c(C(=O)N(C)O)n2)c1F`, `Cc1cc(C#N)cc(C(=O)Nc2ccc(F)c(Cl)c2)n1` is lower in melting point: 211 to 214 °C for the first, 204 °C for the second.

First: CC(C)(C)c1ccc(C[C@H]2NC(=O)O[C@H]2c2ccc(F)cc2)cc1 (racemic)
Second: CC(=O)c1cc2cc(C(C)(C)C)ccc2o1
The melting point of the first is higher: 218 to 219 °C for the first, 99 to 101 °C for the second.

First: O=C(O)c1ccc(OC(F)F)c2oc3ccncc3c12
Second: O=C(Nc1c(C(O)(C(F)(F)F)C(F)(F)F)ccc2ccccc12)c1cccnc1
The melting point of the first is higher: > 250 °C for the first, 214 to 215 °C for the second.

First: CCNC(=O)c1ccsc1
Second: CC(C)Nc1ccc(O)cc1
The melting point of the first is lower: 115 to 117 °C for the first, 143 °C for the second.

First: O=C1c2ccc(Cl)cc2CC1(F)Br (stereo not drawn)
Second: CC1(C)N=C(n2ccc(O)cc2=O)c2cc(Br)ccc2O1
The melting point of the first is lower: 104 to 105 °C for the first, 171 to 172 °C for the second.

First: N#CC(Nc1ccc(SSc2ccc(NC(C#N)c3ccc(S(N)(=O)=O)cc3)cc2)cc1)c1ccc(S(N)(=O)=O)cc1 (stereo not drawn)
Second: COc1ccc(S(=O)(=O)N2c3ccccc3-c3ccccc3C2c2ccccc2)cc1 (stereo not drawn)
The melting point of the first is higher: 251 to 255 °C for the first, 145 to 147 °C for the second.

Compared with `CCOC1=C(C(=O)N(C)C)S(=O)(=O)N=C1N`, `CCOC(=O)c1snnc1SC` is lower in melting point: 221 to 223 °C for the first, 64.5 to 65.5 °C for the second.

First: CC12CC(N3CCC4(CC3)OCCO4)C(O)CC1CCC1C2CCC2(C)C(O)C(N3CCCCC3)CC12 (stereo not drawn)
Second: C=C1CC2C(CCC3(C)C2CCC3(OC(C)=O)C(C)=O)C2(C)C1=CC(=O)CC2CCl (stereo not drawn)
The melting point of the first is higher: 216 to 218 °C for the first, 190 to 192 °C for the second.

Compared with `c1ccc2[nH]c(-c3ccsc3)cc2c1`, `Cc1cnc(CSc2cc3ccccc3[nH]2)cc1N1CCCCC1` is lower in melting point: 212 to 214 °C for the first, 138 to 139 °C for the second.

First: O=[N+]([O-])c1ccc(N2C[C@H]3CN(Cc4ccccc4)C[C@H]3C2)cc1
Second: COc1ccc(CCN2CCC(NC(=O)c3ccccc3)CC2)cc1
The melting point of the first is lower: 121 to 123 °C for the first, 178 °C for the second.

First: Cc1cc(C#N)cc(C)c1OCCCCCc1cc(CO)no1
Second: CCCCCCCCCCOc1ccc(-c2nc3ccc(C(=O)O)cc3o2)cc1C12CC3CC(CC(C3)C1)C2
The melting point of the first is lower: 63 to 64 °C for the first, 200 to 201 °C for the second.

First: CC(C)Oc1cc(-n2c(=O)[nH]c3c(c2=O)CCC3)c(F)cc1Cl
Second: COc1cc2c(cc1OCCCN1CCC(c3noc4cc(F)ccc34)CC1)CCCC2=O
The melting point of the first is higher: 215 to 217 °C for the first, 129 to 131 °C for the second.

First: CCCCC1(C2CCCC2)Cc2cc(OCCCC(=O)O)c(Cl)c(Cl)c2C1=O (stereo not drawn)
Second: COc1cc(N)c(Cl)cc1C(=O)NCC1CCN(CCCCCC(=O)c2cc3ccccc3s2)CC1
The melting point of the first is lower: 139 to 140 °C for the first, 157 to 159 °C for the second.

First: CCOC(=O)N1CCN(C(C#N)c2ccc(OC)c(OC)c2OC)CC1 (stereo not drawn)
Second: CCOC(=O)C(=CNc1ncnc2ccc(NC(=O)CC(C)(C)C)cc12)C(=O)OCC
The melting point of the first is higher: 138 to 139 °C for the first, 133 to 135 °C for the second.

Compared with `CSc1nc(Cl)c(C(Cl)Cl)c(Cl)n1`, `CC(C)Oc1nc(N)nc2c1ncn2C1C=CC(CO)C1` (stereo not drawn) is higher in melting point: 66 °C for the first, 188 to 191 °C for the second.

First: Nc1ccc2c(c1)nc(/C=C/c1ccccc1)n2-c1ccccn1
Second: Cn1c(CCN2CCC(c3ccccc3)CC2)nc2cc(Br)c3ccccc3c21
The melting point of the first is lower: 146 to 148 °C for the first, 182 to 184 °C for the second.

First: CS(=O)(=O)c1ccc(-c2cnc3cnc(-c4ccc(O)cc4)nc3c2)cc1
Second: Cc1ccc(-n2nc(-c3ccc(O)cc3)c3cccnc32)cc1
The melting point of the first is higher: 306 to 307 °C for the first, 201 to 203 °C for the second.

First: Cn1nc(-c2cc(C=NOCC(=O)O)c(Cl)cc2F)c(Cl)c1C(F)(F)F
Second: CN(C)C(=O)CCc1ccc(NC(=O)Nc2ccc(Cl)c(C(F)(F)F)c2)c(-c2nnn[nH]2)c1
The melting point of the first is lower: 170 °C for the first, 184 to 189 °C for the second.

Compared with `Cc1ccccc1-c1cnc2c(C(F)(F)F)cccc2c1-c1cccc(NC(=O)Nc2ccccc2)c1`, `O=C(O)c1ccc(COc2ccc3cc(-c4ccc(-c5ccccc5)n4Cc4ccc(C(F)(F)F)cc4)ccc3c2)cc1` is higher in melting point: 192 to 195 °C for the first, 228 to 229 °C for the second.

First: O=C(OCC(O)c1ccccc1)c1ccc(-c2ccc(OCCCCCCO)cc2)cc1 (stereo not drawn)
Second: CCOC(Nc1ccccc1)(OCC)c1ccnc(C(=O)c2ccc(C)cc2)c1
The melting point of the first is higher: 148 to 150 °C for the first, 95 to 96 °C for the second.

First: C=C1Oc2cc(OS(=O)(=O)C(F)(F)F)ccc2C(=O)C1c1ccccc1 (stereo not drawn)
Second: CC1(C(=O)Nc2ccc(OCc3ccccc3)c(C(F)(F)F)c2)CC1
The melting point of the first is higher: 133 to 135 °C for the first, 120 to 122 °C for the second.

First: COC(=O)c1cc2nnn(-c3ccccc3)c2nc1OCc1ncnn1C
Second: Cc1nc(-n2cc(Cc3ccccc3)nn2)sc1C(=O)NCc1ccccc1
The melting point of the first is higher: 188 to 190 °C for the first, 139 to 141 °C for the second.

First: O=CN1CCN(C2=C(O)C(=O)c3ccccc3C2=O)CC1
Second: O=C1CN(c2ccccc2)C(=O)N1C(=O)c1ccc(Cl)cc1
The melting point of the first is higher: 200 to 203 °C for the first, 182 to 184 °C for the second.

Compared with `CC12CCC(O[Si](C)(C)C(C)(C)C)CC1=CC(=O)C1C2CCC2(C)C(O[Si](C)(C)C(C)(C)C)CCC12` (stereo not drawn), `CC1(O)CCC2C3CCC4=CC(=O)CCC4C3C(=CF)CC21C` (stereo not drawn) is higher in melting point: 99 to 101 °C for the first, 127 to 131 °C for the second.

Going from `Cc1ccc(S(=O)(=O)OC[C@H](CNC(=O)c2ccc(Cl)s2)OC(=O)Nc2ccc(N3CCOCC3=O)cc2)cc1` to `COC(=O)c1cc(-c2ccc(C)cc2)n(Cc2ccc(Cl)cc2Cl)n1`, the melting point falls from 142 °C to 105 °C.

First: CS(=O)(=O)c1ccc(-c2cnn(CC(F)(F)F)c(=O)c2N)cc1
Second: COc1nc(N)nc(-c2ccc(S(C)(=O)=O)cc2)c1-c1ccc(=O)n(C(C)C)n1
The melting point of the first is higher: > 260 °C for the first, 148 to 151 °C for the second.

First: FC(F)(F)c1cc(Nc2ccc3[nH]ccc3c2)nc(-c2cccnc2)n1
Second: O=C1NCCc2c(-c3cccc(CCO)c3)[nH]c3cccc1c23
The melting point of the first is lower: 142 to 143 °C for the first, 188 °C for the second.

Compared with `CC(=O)OC1CSC(Oc2cncc(-c3ccc(F)c(C)c3)c2)C(OC(C)=O)C1OC(C)=O` (stereo not drawn), `CC1=C(C(=O)OCCN(C)Cc2ccccc2)C(c2cccc([N+](=O)[O-])c2)C(P2(=O)OCCCO2)=C(C)N1` (stereo not drawn) is lower in melting point: 161 °C for the first, 139 to 140 °C for the second.

First: C=CCO/N=C(\C(=O)OC)c1csc(N)n1
Second: CON=C(C(=O)O)c1nc(NC=O)sc1Cl
The melting point of the first is lower: 133 to 134 °C for the first, 175 to 177 °C for the second.

First: C#CCOC(=O)c1cc(Br)c(O)c(OC)c1
Second: COc1cc(Cl)c(N=C2NCCN2OCc2ccccc2)c(Cl)c1
The melting point of the first is higher: 121 to 122 °C for the first, 90 to 92 °C for the second.

First: CC(C)(C)OC(=O)C[C@@H](CC1CCCC1)C(=O)N1C(=O)OC[C@@H]1Cc1ccccc1
Second: CCOC(=O)C(CC)C(O)(c1ccccc1)c1ccc(O)cc1 (stereo not drawn)
The melting point of the first is higher: 113 to 119 °C for the first, 46 to 53 °C for the second.

First: CCN(CC)C(=O)Oc1c2c(ccc3cc(F)ccc32)nn1-c1ccc(F)cc1
Second: O=C1CC(c2cccc(-c3nc(CN4CCOCC4)co3)c2)=Nc2ccc(-n3cccc3)cc2N1
The melting point of the first is lower: 159 to 160 °C for the first, 166 to 167 °C for the second.

First: CS(=O)(=O)Nc1cccc(Br)n1
Second: C/C(C=O)=C\c1ccc([N+](=O)[O-])cc1
The melting point of the first is lower: 90 to 94 °C for the first, 112 to 114 °C for the second.

Compared with `OC(CN1CCNC1=S)c1cccc(C(F)(F)F)c1` (stereo not drawn), `O=C1CCC(c2cccc(O)c2)N1Cc1ccncc1` (stereo not drawn) is higher in melting point: 117 °C for the first, 148 to 150 °C for the second.

First: CC(C)OC(=O)C=Cc1ccc(N)cc1
Second: CC1(C)Oc2cc3nonc3cc2C(NC(=O)NCCCCl)C1O (stereo not drawn)
The melting point of the first is lower: 78 to 80 °C for the first, 83 to 85 °C for the second.
